Measured values: patent US20250059220A1, “SUBSTITUTED BENZOTHIOPHENE DERIVATIVES AND METHODS OF USE THEREOF” (Merck Sharp & Dohme LLC, priority 2021, published 2025)

Tests used:
human PTPN2 (1-387) = human PTPN2 (1-387) (Homo sapiens (Human), UniProt P17706); experiment: Human PTPN2 Biochemical Assay; details: DiFMUP substrate
How it was run: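 Human PTPN2 (1-387) preincubated 30 min at RT with compound (10-point 3-fold series) in Tris pH 7.4 buffer with 0.5 mM DTT, then DiFMUP substrate added for 1 h at RT. Fluorescence at ex 360/em 460 nm, normalised to no-enzyme and enzyme controls; EC50 from 4-parameter fit.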

human PTPN1 (1-435) = human PTPN1 (1-435) (Homo sapiens (Human), UniProt P18031); experiment: Human PTPN1 Biochemical Assay; details: DiFMUP substrate, read-out: PTP1B IC50
How it was run: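 Read-out is DiFMUP hydrolysis fluorescence (360 nm excitation, 460 nm emission) after 1 h at room temperature, following 30 min enzyme–compound preincubation.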

human PTPN2 (1-387), sequence (P17706 other isoform, or with tags, fused parts or gaps): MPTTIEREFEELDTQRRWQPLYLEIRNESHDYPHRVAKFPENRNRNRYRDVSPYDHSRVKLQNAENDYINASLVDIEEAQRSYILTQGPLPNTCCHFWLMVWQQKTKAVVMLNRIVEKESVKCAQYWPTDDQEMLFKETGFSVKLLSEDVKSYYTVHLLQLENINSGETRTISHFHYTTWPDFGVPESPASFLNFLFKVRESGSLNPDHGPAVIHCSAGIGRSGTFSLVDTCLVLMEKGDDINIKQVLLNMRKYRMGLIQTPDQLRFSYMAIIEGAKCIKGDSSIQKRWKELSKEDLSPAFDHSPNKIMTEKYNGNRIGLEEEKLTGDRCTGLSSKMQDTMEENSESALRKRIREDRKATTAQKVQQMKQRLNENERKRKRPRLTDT
human PTPN1 (1-435), sequence (P18031 whole entry): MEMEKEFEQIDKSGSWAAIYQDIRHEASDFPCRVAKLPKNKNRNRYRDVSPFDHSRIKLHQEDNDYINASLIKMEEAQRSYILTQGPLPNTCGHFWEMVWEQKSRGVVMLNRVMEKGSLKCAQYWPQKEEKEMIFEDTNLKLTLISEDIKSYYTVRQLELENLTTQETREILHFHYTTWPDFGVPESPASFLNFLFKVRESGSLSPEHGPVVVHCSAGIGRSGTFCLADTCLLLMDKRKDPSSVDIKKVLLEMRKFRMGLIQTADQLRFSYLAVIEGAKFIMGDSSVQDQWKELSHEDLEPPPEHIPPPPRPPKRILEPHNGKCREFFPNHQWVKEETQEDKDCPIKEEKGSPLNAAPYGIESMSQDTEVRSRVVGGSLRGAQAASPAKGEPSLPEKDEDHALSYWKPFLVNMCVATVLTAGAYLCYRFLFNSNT

| SMILES | IC50 (human PTPN2 (1-387)) | IC50 (human PTPN1 (1-435)) |
| --- | --- | --- |
| CS(=O)(=O)CCCOc1cc(C(N)=O)cc2c(C(F)F)c(C(F)(F)P(=O)(O)O)sc12 [Compound 454, ((5-carbamoyl-3-(difluoromethyl)-7-(3-(methylsulfonyl)propoxy)benzo[b]thiophen-2-yl)difluoromethyl)phosphonic acid] | 24.5 nM | 40.3 nM |
| O=C(NCc1ccon1)c1ccc2sc(C(F)(F)P(=O)(O)O)c(Br)c2c1 [Compound 179] | 2570 nM | 2840 nM |
| CS(=O)(=O)NCc1cc(OCCCC(F)(F)F)c2sc(C(F)(F)P(=O)(O)O)c(Br)c2c1 [Compound 450, ((3-bromo-5-(methylsulfonamidomethyl)-7-(4,4,4-trifluorobutoxy)benzo[b]thiophen-2-yl)difluoromethyl)phosphonic acid] | 227 nM | 175 nM |
| O=C(Nc1ccccc1)c1ccc2sc(C(F)(F)P(=O)(O)O)c(C(F)F)c2c1 [Compound 216, ((3-(difluoromethyl)-5-(phenylcarbamoyl)benzo[b]thiophen-2-yl)difluoromethyl)phosphonic acid] | 5760 nM | 6410 nM |
| NC(=O)c1cc(OCCCCC(F)(F)F)c2sc(C(F)(F)P(=O)(O)O)c(Br)c2c1 [Compound 274] | 64.9 nM | 43 nM |
| N#Cc1c(C(F)(F)P(=O)(O)O)sc2ccc(C(=O)NC3CC(F)(F)C3)cc12 [Compound 4] | 1200 nM | 1440 nM |
| CN(C)S(=O)(=O)CCCOc1cc(C(N)=O)cc2c(Br)c(C(F)(F)P(=O)(O)O)sc12 [Compound 374] | 14 nM | 12.5 nM |
| C[C@@H](NC(=O)c1ccc2sc(C(F)(F)P(=O)(O)O)c(Br)c2c1)c1cccnn1 [Compound 130] | 1220 nM | 1090 nM |
| O=C(NCc1ncn[nH]1)c1ccc2sc(C(F)(F)P(=O)(O)O)c(Br)c2c1 [Compound 139] | 1490 nM | 1300 nM |
| N#Cc1cccc(-c2cccc(NC(=O)c3ccc4sc(C(F)(F)P(=O)(O)O)c(Br)c4c3)c2)c1 [Compound 66] | 719 nM | 516 nM |
| O=P(O)(O)C(F)(F)c1sc2c(OCCCC(F)(F)F)cc(-c3c[nH]cn3)cc2c1Br [Compound 416, ((3-bromo-5-(1H-imidazol-4-yl)-7-(4,4,4-trifluorobutoxy)benzo[b]thiophen-2-yl)difluoromethyl)phosphonic acid] | 92 nM | 137 nM |
| NC(=O)c1cc(OCC2CC3(CC3)C2)c2sc(C(F)(F)P(=O)(O)O)c(Br)c2c1 [Compound 249] | 60.9 nM | 84.5 nM |
| CS(=O)(=O)NCCCOc1cc(C(N)=O)cc2c(Br)c(C(F)(F)P(=O)(O)O)sc12 [Compound 256] | 128 nM | 66 nM |
| O=C(Cc1cccnc1)Nc1ccc2sc(C(F)(F)P(=O)(O)O)c(Br)c2c1 [Compound 214] | 4320 nM | 3480 nM |
| C[C@@H](NC(=O)c1ccc2sc(C(F)(F)P(=O)(O)O)c(Br)c2c1)c1ncc(F)cn1 [Compound 182] | 5080 nM | 2650 nM |
| CC(C)(O)CCCOc1cc(C(N)=O)cc2c(Br)c(C(F)(F)P(=O)(O)O)sc12 [Compound 306] | 16.4 nM | 25.7 nM |
| CCc1noc(CNC(=O)c2ccc3sc(C(F)(F)P(=O)(O)O)c(Br)c3c2)n1 [Compound 196] | 3540 nM | 2100 nM |
| CN(C)C(=O)c1cc(OCCCC(F)(F)F)c2sc(C(F)(F)P(=O)(O)O)c(Br)c2c1 [Compound 204] | 1260 nM | 1430 nM |
| C#Cc1cc(OCCCC(F)(F)F)c2sc(C(F)(F)P(=O)(O)O)c(Br)c2c1 [Compound 405, ((3-bromo-5-ethynyl-7-(4,4,4-trifluorobutoxy)benzo[b]thiophen-2-yl)difluoromethyl)phosphonic acid] | 288 nM | 290 nM |
| CC(Cn1ccc2ccccc21)NC(=O)c1ccc2sc(C(F)(F)P(=O)(O)O)c(Br)c2c1 (stereo not drawn) [Compound 81] | 27.3 nM | 114 nM |
| N#Cc1c(C(F)(F)P(=O)(O)O)sc2c(OCCCC(F)(F)F)cc(C(N)=O)cc12 [Compound 424] | 6.69 nM | 19.7 nM |
